Results from PMC10304650 (Journal of medicinal chemistry, 2023).

What was measured:
[1] = tested on: phosphorylation of 4E-BP1 in T24 cells; assay: Phosphorylation of 4E-BP1 by western blot; format: cell-based, human; conditions: 1 μM, 24h
other CK1 isoforms = assay: Specificity among CK1 isoforms; format: biochemical
[2] = tested on: bladder cancer cell lines; assay: Cell proliferation, CellTiter-Glo, 72 hours; format: cell-based, human; conditions: three bladder cancer cell lines
97 kinases = assay: KINOMEscan profiling; format: binding; conditions: 97 kinases examined

Row | Antiproliferative potency, EC50 [2] | SMILES | Inhibition of phosphorylation of T37/46, S65 and T70 of 4E-BP1 [1] | Inhibition of other CK1 isoforms (other CK1 isoforms) | KINOMEscan binding affinity (97 kinases)
1 | high nanomolar | Fc1ccc2[nH]c(CNc3nc(N4CCOCC4)nc4c3ncn4-c3ccc4ccccc4c3)nc2c1F [SR-4133, N-((4,5-difluoro-1H-benzo[d]imidazol-2-yl)methyl)-2-morpholino-9-(naphthalen-2-yl)-9Hpurin-6-amine] | blocks the phosphorylation | do not inhibit | weak binding affinity only to CK1δ, PDGFRB, and TRKA
2 | nanomolar | COc1ccc(-n2cnc3c(NCc4nc5c(F)c(F)ccc5[nH]4)nc(N4CCOCC4)nc32)cc1 [SR-4310, N-((6,7-difluoro-1H-benzo[d]imidazol-2-yl)methyl)-9-(4-methoxyphenyl)-2-morpholino-9H-purin-6-amine] | – | do not inhibit | –
